Read-outs that look alike come from different tables or passages of the source.
Target: T1, human CB2R (Homo sapiens, UniProt P34972)
T1 construct: host or cells: CHO cells
Assay: CB2R mediated modulation of cAMP synthesis (forskolin-stimulated cAMP, CHO cells expressing human CB2R)
Format: cell-based
Description: B. CB2R Mediated Modulation of cAMP Synthesis:
Compounds of the invention were evaluated for their CB2 agonist or inverse agonistic activity in accordance with the following experimental method.
CHO cells expressing human CB2R (Euroscreen) were plated at a density of 5000 cells per well in 384 well plates and incubated overnight at 37° C. After removing the media, the cells were treated with test compounds diluted in stimulation buffer containing 1 mM IBMX, 0.25% BSA and 10 uM Forskolin. The assay was incubated for 30 minutes at 37° C. Cells were lysed and the cAMP concentration was measured using DiscoverX-XS cAMP kit, following the manufacturer's protocol. In this setting, agonists will decrease forskolin induced production of cAMP while inverse agonists will further increase forskolin induced production of cAMP. EC50 of agonists were calculated as follows. The maximal amount of cAMP produced by forskolin compared to the level of cAMP inhibited by 1 uM CP55940 is defined as 100%. […] Data was analyzed using a four-parameter logistic model. (Model 205 of XLfit 4.0).

[1] = agonist EC50, inhibition of forskolin-stimulated cAMP synthesis, CHO cells expressing human CB2R, mean, read-out: CB2 CAMP @ EC50 nM (mean)

T1 sequence (P34972 whole entry): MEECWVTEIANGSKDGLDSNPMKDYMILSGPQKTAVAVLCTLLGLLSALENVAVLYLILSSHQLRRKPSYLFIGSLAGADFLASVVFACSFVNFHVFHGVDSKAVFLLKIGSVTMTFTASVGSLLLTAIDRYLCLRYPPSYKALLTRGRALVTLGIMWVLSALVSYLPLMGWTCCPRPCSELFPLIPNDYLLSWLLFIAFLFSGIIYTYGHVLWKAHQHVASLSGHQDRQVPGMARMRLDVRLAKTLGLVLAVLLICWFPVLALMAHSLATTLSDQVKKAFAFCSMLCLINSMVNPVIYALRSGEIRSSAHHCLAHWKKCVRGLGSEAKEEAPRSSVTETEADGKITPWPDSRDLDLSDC

EC50 [1] [nM]	Structure (SMILES)	EC50 [nM]
	O=C(Nc1ccc(F)c(C(F)(F)F)c1)[C@@H]1CCCCN1CC1CCOCC1 [(S)-1-(Tetrahydro-pyran-4-ylmethyl)-piperidine-2-carboxylic acid (4-fluoro-3-trifluoromethyl-phenyl)-amide]	26
	O=C(Nc1nc2c(F)cccc2s1)[C@@H]1CCCCN1CC1CCOCC1 [(S)-1-(Tetrahydro-pyran-4-ylmethyl)-piperidine-2-carboxylic acid (4-fluoro-benzothiazol-2-yl)-amide]	1.3
9.9	O=C(Nc1nc(-c2ccccc2)cs1)[C@@H]1CCCCN1CC1CCOCC1 [(S)-1-(Tetrahydro-pyran-4-ylmethyl)-piperidine-2-carboxylic acid (4-phenyl-thiazol-2-yl)-amide]	
	CC(C)(C)c1coc(NC(=O)[C@@H]2CCCCN2CC2CCOCC2)n1 [(S)-1-(Tetrahydro-pyran-4-ylmethyl)-piperidine-2-carboxylic acid (4-tert-butyl-oxazol-2-yl)-amide]	2.4
	CC(C)(C)c1csc(NC(=O)[C@@H]2CCCCN2CC2CCOCC2)n1 [(S)-1-(Tetrahydro-pyran-4-ylmethyl)-piperidine-2-carboxylic acid (4-tert-butyl-thiazol-2-yl)-amide]	13
	O=C(Nc1nc2cc(Cl)ccc2s1)[C@@H]1CCCCN1CC1CCOCC1 [(S)-1-(Tetrahydro-pyran-4-ylmethyl)-piperidine-2-carboxylic acid (5-chloro-benzothiazol-2-yl)-amide]	0.2
0.55	CCc1sc(NC(=O)[C@@H]2CCCCN2CC2CCOCC2)nc1-c1ccccc1 [(S)-1-(Tetrahydro-pyran-4-ylmethyl)-piperidine-2-carboxylic acid (5-ethyl-4-phenyl-thiazol-2-yl)-amide]	
14	O=C(Nc1nsc(-c2ccccc2)n1)[C@@H]1CCCCN1CC1CCOCC1 [(S)-1-(Tetrahydro-pyran-4-ylmethyl)-piperidine-2-carboxylic acid (5-phenyl-1,2,4-thiadiazol-3-yl)-amide]	
1.6	CC(C)(C)c1nnc(NC(=O)[C@@H]2CCCCN2CC2CCOCC2)s1 [(S)-1-(Tetrahydro-pyran-4-ylmethyl)-piperidine-2-carboxylic acid (5-tert-butyl-1,3,4-thiadiazol-2-yl)-amide]	
	O=C(Nc1ccc(C(F)(F)F)cn1)[C@@H]1CCCCN1CC1CCOCC1 [(S)-1-(Tetrahydro-pyran-4-ylmethyl)-piperidine-2-carboxylic acid (5-trifluoromethyl-pyridin-2-yl)-amide]	69
131	O=C(Nc1nc2ccc(Cl)cc2s1)[C@@H]1CCCCN1CC1CCOCC1 [(S)-1-(Tetrahydro-pyran-4-ylmethyl)-piperidine-2-carboxylic acid (6-chloro-benzothiazol-2-yl)-amide]	
	O=C(Nc1nc(-c2ccc(F)c(F)c2)cs1)[C@@H]1CCCCN1CC1CCOCC1 [(S)-1-(Tetrahydro-pyran-4-ylmethyl)-piperidine-2-carboxylic acid [4-(3,4-difluoro-phenyl)-thiazol-2-yl]-amide]	3.6
140	CC(C)(C)c1nnc(NC(=O)[C@@H]2CCCCN2C2CCC2)s1 [(S)-1-Cyclobutyl-piperidine-2-carboxylic acid (5-tert-butyl-1,3,4-thiadiazol-2-yl)-amide]	
	CC(C)(C)c1cc(NC(=O)[C@@H]2CCCCN2C(=O)C2CCCC2)no1 [(S)-1-Cyclopentanecarbonyl-piperidine-2-carboxylic acid (5-tert-butyl-isoxazol-3-yl)-amide]	14
485	CC(C)(C)c1nnc(NC(=O)[C@@H]2CCCCN2C2CC2)s1 [(S)-1-Cyclopropyl-piperidine-2-carboxylic acid (5-tert-butyl-1,3,4-thiadiazol-2-yl)-amide]	

Structure (SMILES)	EC50 [1] [nM]	EC50 [nM]
O=C(Nc1cc(C(F)(F)F)ccn1)[C@@H]1CCCCN1CC1CCOCC1 [(S)-1-(Tetrahydro-pyran-4-ylmethyl)-piperidine-2-carboxylic acid (4-trifluoromethyl-pyridin-2-yl)-amide]	290	

Reference: US8889670B2, “Heterocyclic compounds which modulate the CB2 receptor” (Boehringer Ingelheim International GmbH, priority 2009, dated 2014)
